Measurements published in patent publication US20020110523A1, “Methods for screening or monitoring the risk of cardiovascular disease relating to sex steroid compound or composition intake and methods for screening sex steroid compound” (priority 1996, published 2002).
Marks after values point to notes of the source that are not given here.

Assays:
[1] = review of human studies; cited from earlier work
C-reactive protein (CRP) = test: CRP in postmenopausal women with type 2 diabetes on estrogen replacement therapy, randomized placebo-controlled trial (Example III); format: in vivo, human
[2] = among third-generation OCs; cited from earlier work
ceruloplasmin = conditions: FIG. 1 of Ruokonen and Kaar; cited from earlier work
[3] = system: SHBG, cortisol binding protein (CBP), ceruloplasmin and HDL-cholesterol; conditions: cited from earlier work; for estrogenic effect: in man; for androgenic activity: on the basis of a change in SHBG and HDL cholesterol levels

SMILES	androgenicity and antiestrogenic potential [1]	estrogenic effect [3]	androgenic activity [3]	other results
C#C[C@]1(O)C=C[C@H]2[C@@H]3CCC4=CC(=O)CC[C@@H]4[C@H]3CC[C@@]21CC [gestodene]	minimal amounts of androgenicity and antiestrogenic potential			
C[C@]12CC[C@@H]3c4ccc(O)cc4CC[C@H]3[C@@H]1CC[C@@H]2O [17 beta estradiol]				effect on CRP (C-reactive protein (CRP); 2 mg/d orally for six weeks): induced an increase in CRP; CRP-values, Median (C-reactive protein (CRP); 6 weeks, 2 mg/d orally, p = 0.0027 compared to pretreatment): 6.70#; CRP-values, Median (C-reactive protein (CRP); Pretreatment (baseline of the treatment group), postmenopausal women with type 2 diabetes): 4.13
C#C[C@]1(OC(C)=O)CC[C@H]2[C@@H]3CCC4=CC(=NO)CC[C@@H]4[C@H]3CC[C@@]21CC (mixture of isomers) [norgestimate]	minimal amounts of androgenicity and antiestrogenic potential			androgenic profile in vitro [2]: least androgenic profile
C#C[C@]1(O)CC[C@H]2[C@@H]3CCC4=CCCC[C@@H]4[C@H]3C(=C)C[C@@]21CC [desogestrel]	minimal amounts of androgenicity and antiestrogenic potential	no estrogenic effect	androgenic activity	effect on ceruloplasmin concentration (ceruloplasmin): does not induce this effect or does so to an insufficient degree; androgenicity compared among the three compounds ([3]; desogestrel, levonorgestrel and lynestrenol compared): least androgenic
C#C[C@]1(O)CC[C@H]2[C@@H]3CCC4=CCCC[C@@H]4[C@H]3CC[C@@]21C [lynestrenol]		weakly estrogenic	androgenic activity	
